Measurements as given in patent US11299510B2, “Substituted pyridopyrrolopyrimidine ribonucleosides for therapeutic uses” (USTAV ORGANICKE CHEMIE A BIOCHEMIE AV CR, V.V.I., priority 2018, dated 2022).

Key:
Format in all cases: cell-based
[1] = system: A549 (human lung adenocarcinoma); assay: cytotoxic MTS test, A549; conditions: A549 cells
Description: (§1) To evaluate the antitumor activity of newly prepared compounds for in vitro conditions, we used cytotoxic MTS test (Nosková V. et al., Neoplasma 2002, 49, 418-425) on cell lines derived from normal tissues or tumors. Specifically, cell lines K562 (human acute myeloid leukemia); K562-Tax (human acute myeloid leukemia, paclitaxel resistant subline, overexpress multiple drug resistant protein PgP); CEM (T-lymfoblastic leukemia); CEM-DNR-bulk (T-lymfoblastic leukemia, doxorubicin resistant); A549 (human lung adenocarcinoma); HCT116p53 wt (human colorectal cancer, wild-type); HCT116p53−/−(human colorectal cancer, mutant p53) a U2OS (human bone osteosarcoma) were used. Express characteristics, susceptibility profiles of classic antitumor drugs as well as methodology of cytotoxic MTS test have been repeatedly published (Denizot, F.; Lang, R., J. Immunol. Meth. 1986, 89, 271-277; Noskova, V., see above; Šarek J. et al., J, Med. Chem., 2003, 46, 5402-5415).

[2] = system: BJ (normal human fibroblasts); assay: cytotoxic MTS test, BJ; conditions: BJ cells
CCRF-CEM = assay: cytotoxic MTS test, CCRF-CEM; conditions: Homo sapiens; CCRF-CEM cells
Description: as §1

[3] = system: CEM-DNR-bulk (T-lymfoblastic leukemia, doxorubicin resistant); assay: cytotoxic MTS test, CEM-DNR; conditions: Homo sapiens; CEM-DNR cells
Description: as §1

[4] = system: HCT116p53 wt (human colorectal cancer, wild-type); assay: cytotoxic MTS test, HCT116; conditions: HCT-116, HCT116 cells
Description: as §1

[5] = system: HCT116p53−/− (human colorectal cancer, mutant p53); assay: cytotoxic MTS test, HCT116p53; conditions: HCT116p53 cells
Description: as §1

[6] = system: K562 (human acute myeloid leukemia); assay: cytotoxic MTS test, K562; conditions: K562 cells
Description: as §1

[7] = system: K562-Tax (human acute myeloid leukemia, paclitaxel resistant subline); assay: cytotoxic MTS test, K562-TAX; conditions: K562-TAX cells
Description: as §1

[8] = system: MRC-5 (normal human fibroblasts); assay: cytotoxic MTS test, MRC-5; conditions: MRC5, MRC-5 cells
[9] = system: U2OS (human bone osteosarcoma); assay: cytotoxic MTS test, U2OS; conditions: U2OS cells
Description: as §1

Hep G2 = assay: cytotoxic MTS test, Hep G2; conditions: Homo sapiens, HepG2; Hep G2 cells
HL 60 = assay: cytotoxic MTS test, HL 60; conditions: Homo sapiens; HL 60 cells
[10] = system: CEM (T-lymfoblastic leukemia); assay: cytotoxic MTS test, CEM; conditions: Homo sapiens, CCRF-CEM; CEM cells
Description: as §1

HeLa = assay: cytotoxic MTS test, HeLa; conditions: Homo sapiens; HeLa cells

| Structure (SMILES) | IC50 [1] [µM] | IC50 [2] [µM] | IC50 (CCRF-CEM) [µM] | IC50 [3] [µM] | IC50 [4] [µM] | IC50 [5] [µM] | IC50 [6] [µM] | IC50 [7] [µM] | IC50 [8] [µM] | IC50 [9] [µM] | IC50 (Hep G2) [µM] | IC50 (HL 60) [µM] | IC50 [10] [µM] | IC50 (HeLa) [µM] |
| --- | --- | --- | --- | --- | --- | --- | --- | --- | --- | --- | --- | --- | --- | --- |
| OC[C@H]1O[C@@H](n2c3cnccc3c3c(-c4ccoc4)ncnc32)[C@H](O)[C@@H]1O [Compound 2g, 4-(furan-3-yl)-9-(β-D-ribofuranosyl)-9H-pyrido[4′,3′:4,5]pyrrolo[2,3-d]pyrimidine] | > 50 | > 50 | > 50 | > 50 | > 50 | > 50 | > 50 | > 50 | > 50 | > 50 | > 50 | > 50 | > 50 | > 50 |
| OC[C@H]1O[C@@H](n2c3cccnc3c3c(-c4cc5ccccc5o4)ncnc32)[C@H](O)[C@@H]1O [Compound 1i, 4-(benzofuran-2-yl)-9-(β-D-ribofuranosyl)-9H-pyrido[2′,3′:4,5]pyrrolo[2,3-d]pyrimidine] | > 50 | > 50 | 10 to 25 | > 50 | > 50 | > 50 | > 50 | > 50 | > 50 | > 50 | > 50 | > 50 | > 50 | > 50 |
| OC[C@H]1O[C@@H](n2c3cnccc3c3c(-c4cc5ccccc5o4)ncnc32)[C@H](O)[C@@H]1O [Compound 2i, 4-(benzofuran-2-yl)-9-(β-D-ribofuranosyl)-9H-pyrido[4′,3′:4,5]pyrrolo[2,3-d]pyrimidine] | 10 to 25 | 25 to 50 | 0.9 to 10 | 10 to 25 | 0.9 to 10 | 10 to 25 | 10 to 25 | 10 to 25 | 10 to 25 | 10 to 25 | > 50 | > 50 | > 50 | > 50 |
| CSc1ncnc2c1c1ccncc1n2[C@@H]1O[C@H](CO)[C@@H](O)[C@H]1O [Compound 2b, 4-(methylsulfanyl)-9-(β-D-ribofuranosyl)-9H-pyrido[4′,3′:4,5]pyrrolo[2,3-d]pyrimidine] | 10 to 25 | > 50 | 0.2 to 0.9 | 0.9 to 10 | 0.2 to 0.9 | 0.2 to 0.9 | 0.2 to 0.9 | 0.9 to 10 | > 50 | 0.2 to 0.9 | 0.9 to 10 | 0.2 to 0.9 | 0.2 to 0.9 | 0.9 to 10 |
| CN(C)c1ncnc2c1c1ncccc1n2[C@@H]1O[C@H](CO)[C@@H](O)[C@H]1O [Compound 1e, 4-(dimethylamino)-9-(β-D-ribofuranosyl)-9H-pyrido[2′,3′:4,5]pyrrolo[2,3-d]pyrimidine] | > 50 | > 50 | > 50 | > 50 | > 50 | > 50 | > 50 | > 50 | > 50 | > 50 | > 50 | > 50 | > 50 | > 50 |
| CSc1ncnc2c1c1ncccc1n2[C@@H]1O[C@H](CO)[C@@H](O)[C@H]1O [Compound 1b, 4-(methylsulfanyl)-9-(β-D-ribofuranosyl)-9H-pyrido[2′,3′:4,5]pyrrolo[2,3-d]pyrimidine] | > 50 | > 50 | > 50 | > 50 | > 50 | > 50 | > 50 | > 50 | > 50 | > 50 | > 50 | > 50 | > 50 | > 50 |
